Assay results reported in US20170240592A1, “GADD45BETA/MKK7 INHIBITOR FOR THE TREATMENT OF A RESISTANT HAEMATOLOGICAL MALIGNANCY” (IMPERIAL INNOVATIONS LIMITED, priority 2014, published 2017).

Key:
[1] = tested on: drug-resistant multiple myeloma cell lines; assay: [3H]thymidine incorporation assay, sensitive and drug-resistant multiple myeloma cell lines; format: cell-based, human; details: 6-day treatment; MM1.R, AMO-1a, MM1/R10R, U266/R10R
Excerpt: Matching pairs of sensitive (parental) and drug-resistant multiple myeloma cell lines were as follows: MM1.S (parental) and MM1.R (dexamethasone-resistant); AMO-1 (parental) and AMO-1a (bortezomib-resistant); MM1.S (parental) and MM1/R10R (lenalidomide-resistant); U266 (parental) and U266/R10R (lenalidomide-resistant). […] For clarity purposes, the same data for the parental MM1.S MM multiple myeloma cell line are shown as control for the dexamethasone-resistant (MM1.R) MM multiple myeloma cell line and the lenalidomide-resistant (MM1/R10R) MM multiple myeloma cell line.

[2] = tested on: multiple myeloma cell lines; assay: [3H]thymidine incorporation assay, survival of multiple myeloma cell lines; format: cell-based, human; details: 6-day treatment; all lines tested apart from RPMI-8226 and KMM-1
Method: (§1) Values express the percentage of live cells present in the treated cultures relative to the live cells present in the respective untreated cultures and denote means±SD ([WM]; n=3). UT, untreated. […] Values express the percentage of inhibition of Gadd45β binding to MKK7 relative to the binding measured in the absence of peptide. […] Co-immunoprecipitations (IP) were performed using an anti-FLAG antibody (a-FLAG); western blots (WB) were developed using an anti-HA or an anti-MKK7 antibody, as shown.
[^3H]Thymidine incorporation and trypan blue exclusion assays were performed using standard methods (Mauro et al., 2011). […] Apoptosis analyses were performed using PI staining as described in Mauro et al., 2011. Additional details are provided in the Supplemental Experimental Procedures.

[3] = tested on: mouse LN cells and splenocytes; assay: trypan blue exclusion assay, survival of mouse LN cells and splenocytes; format: cell-based; details: DTP3 100 μM, PS-1145 20 μM, 144 hr
Method: as §1
[…] Cell viability was measured by using trypan blue exclusion or [^3H]thymidine incorporation assays performed in the manner described above (Mauro et al., 2011; Griffiths and Sundaram, 2011; Arnold et al., 2008), as indicated.

plasma stability (human) = format: in vitro ADME
Method: In vitro pharmacokinetic assays were performed according to established, in-house protocols and included: plasma stability (human), thermodynamic solubility (PBS pH 7.4, at 37° C. for 14 days), microsomal stability (human), plasma protein binding (PPB; mouse and human), and distribution coefficient (Log D). In vivo pharmacokinetic analyses were also performed at Cyprotex according to established, in-house protocols. Briefly, the peptides were dissolved in PBS and administered by single intravenous injection to CD1 male mice at the dose of 10 mg/kg (25-30 g of total body weight; n=3 mice per time point per compound). Blood samples were collected in heparinized tubes at up to 7 time points after this injection (i.e. 0.08, 0.25, 0.5, 1, 2, 4 and 8 hr), and the plasma concentrations of the test peptide were determined at each time point by LC-MS/MS, using a five-point standard curve covering a peptide concentration range from 3 to 3,000 ng/mL. Standard curves were prepared using blank plasma matrices and treated in the same manner as the test samples. […] Values were calculated from the data of the peptide plasma concentration versus time curves using a non-compartmental model analysis, as described elsewhere (Groulx, 2006; Landaw and Di Stefano 3rd, 1982). […]

tolerability in mice = format: in vivo
Excerpt: Values denote means±SD (n=3) or SEM (n=5), as indicated. MW, molecular weight.

U266 cells = assay: [3H]thymidine incorporation assay, DTP3 and bortezomib as single agents or in combination, U266; details: FA 0.5; DTP3 3 nM for 6 days, bortezomib last 48 hr; Chou-Talalay
Method: Treatments with DTP3 were for 6 days; bortezomib was added to the cell cultures 48 hr prior to the measurement of cell viability. For the combination treatment, DTP3 was used at the concentrations of 3 nM in U266 cells and of 10 nM in KMS-12 cells, whereas bortezomib was used at increasing concentrations, as shown.
Viability data from the experiment shown in FIG. 12 were converted into values representing the fraction of cells affected (FA) equaling 0.5 in the drug-treated cultures compared with untreated cultures, and the interaction of DTP3 with bortezomib was analysed according to the Chou-Talalay method (Chou, 2006). Also shown are the drug concentrations giving the FA value of 0.5 and the description of the CI. […]
[^3H]Thymidine incorporation assays were performed using standard protocols (Griffiths and Sundaram, 2011). […] At 24, 72 or 144 hr, cells were incubated for an additional 16 hr with 0.037 MBq/well of [^3H]thymidine (Amersham), and then harvested onto glass fibre filter mats using a 96-well plate automated Tomtec cell harvester (Receptor Technologies) and analysed by liquid scintillation spectroscopy with a LKB Wallac Trilux Microbeta 3 b-counter (PerkinElmer). Values were expressed as the percentage of the counts per minute (cpm) measured in the treated cultures relative to the cpm measured in the respective untreated cultures. […]

Gadd45β/MKK7 complex = target: T1, Gadd45β/MKK7 complex (Homo sapiens, UniProt O14733); assay: co-immunoprecipitation assay; format: binding; details: anti-FLAG immunoprecipitates, HEK-293T lysates
T1 construct: expressed in transfected cells; host or cells: human HEK-293T
T1 sequence (O14733 1-419): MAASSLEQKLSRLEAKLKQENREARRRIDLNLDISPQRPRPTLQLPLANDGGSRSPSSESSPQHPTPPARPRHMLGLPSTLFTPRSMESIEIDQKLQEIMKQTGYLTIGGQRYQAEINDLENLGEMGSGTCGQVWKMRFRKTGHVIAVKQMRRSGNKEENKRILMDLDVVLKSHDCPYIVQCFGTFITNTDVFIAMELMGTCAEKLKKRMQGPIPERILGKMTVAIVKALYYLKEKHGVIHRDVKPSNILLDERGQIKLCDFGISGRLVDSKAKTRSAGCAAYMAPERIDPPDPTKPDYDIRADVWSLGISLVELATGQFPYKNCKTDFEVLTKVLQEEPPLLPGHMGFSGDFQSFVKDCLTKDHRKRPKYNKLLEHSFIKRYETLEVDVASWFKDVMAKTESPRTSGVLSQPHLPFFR
Method: as §1
Co-immunoprecipitation assays were performed as described previously (Papa et al., 2004). Briefly, human HEK-293T cells were seeded at a density of 1.8-2.2×10^6 cells/dish in […] tissue-culture dishes and then transfected with pcDNA-FLAG-hMKK7 and pcDNA-HA-hGADD45β by using the calcium phosphate precipitation method (Papa et al., 2004). 48 hr after transfection, cells were washed with PBS and then lysed in lysis buffer supplemented with protease inhibitors (1 mM phenylmethylsulfonylfluoride, 10 μM chymostatin, 2 μg/mL aprotinin, 2 μg/mL leupeptin; Roche) for 30 min in ice. Cell lysates were cleared by centrifugation at 45,000×g for 40 min and then used for co-immunoprecipitations with anti-FLAG M2 Affinity Gel (Sigma-Aldrich), binding to FLAG-tagged MKK7. Western blots were developed using an anti-HA (binding to HA-hGADD45β) or an anti-MKK7 antibody. […]

SMILES: CC(=O)N[C@H](Cc1ccc(O)cc1)C(=O)N[C@H](CCCNC(=N)N)C(=O)N[C@H](Cc1ccccc1)C(N)=O [DTP3, Acetyl-Tyr-Arg-Phe-NH2]
- efficacy in multiple myeloma cell lines resistant to dexamethasone, bortezomib and lenalidomide [1]: retained full therapeutic efficacy
- cytotoxic activity in multiple myeloma cell lines [2]: potent and selective capacity to kill multiple myeloma cells via apoptosis
- toxicity to normal cells compared with PS-1145 [3]: far lesser toxicity to normal cells than the IKKβ inhibitor PS-1145
- stability in human serum (plasma stability (human)): very high stability
- tolerability after single administration (tolerability in mice; mice, single i.v. injection, s.c. injection or per os): excellent tolerability
- in-vivo tolerability (tolerability in mice; mouse, in vivo): excellent in-vivo tolerability
- tolerability after prolonged administration (tolerability in mice; osmotic pumps, 28 days, 14.5 mg/kg/day): excellent tolerability and lack of any apparent side effects
- combination index (CI) with bortezomib (U266 cells): 0.21
- disruption of the Gadd45β/MKK7 complex (Gadd45β/MKK7 complex): disruption of the Gadd45β/MKK7 complex
